Assay results from US8846066B2, “Methods and related compositions for reduction of fat and skin tightening” (The Regents of the University of California, priority 2004, dated 2014).
Values joined by “and” are separate entries in the source; they are usually repeats but may differ in a detail not shown here. Equal entries are not always repeated.

Key:
[1] = test system: Melanocytes (A375P melanoma cell line); test: MTS survival of melanocytes after DC with or without 1% PC; format: cell-based; details: 30 min; for Melanocytes surviving in DC only: MTS OD 490 nm, single wells; for Average (DC only): mean MTS OD 490 nm
Procedure: (§1) Melanocytes in melanocyte media on a 96-well dish were differentiated at 37° C. in a humidified, 5% CO2 incubator for a week. Media was aspirated and washed with 1×PBS once. Cells were treated with different concentrations of DC (from 0 to 0.5%) with or without 1% PC in 1×PBS. Each treatment was done in triplicates (Table 4). The plates were incubated at 37° C. in a humidified, 5% CO2 incubator for 30 min. The incubated plates were aspirated and washed with 1×PBS.
(§2) 10 mL of MTS (3-(4,5-dimethyl-2-yl)-5-(3-carboxymethoxyphenyl)-2-(4-sulfophenyl)-2H-tetrazolium, inner salt) assay solution was prepared (mixed 40 uL MTS (Promega, Madison Wis.) per MeI 1×PBS). 100 ul of MTS solution was added to each well of the plates. The plates were incubated at 37° C. incubator (non-hunified) for 120 min. OD was taken with spectrophotometer at 490 nm.
(§3) FIG. 7 illustrates the survival of melanocytes in sodium deoxycholate solution and sodium deoxycholate with 1% phosphatidylcholine solution. A375P is a melanoma cell line (P represents poorly metastatic). On y-axis, 1 represents 100% survival when no DC is added. All % concentrations are w/v %. […] The addition of sodium deoxycholate with 1% phosphatidylcholine solution increases the LD50 by ˜5-6 fold.

[2] = test system: WM266; test: Killing by DC after pre-incubation with human lipoma fat, WM266; format: cell-based
Procedure: (§4) The experiment was performed on a series of immortalized melanocyte cell lines. Resected human lipomas were ground up, and DC-containing media was mixed with the human fat and agitated for 24 hours. The material was centrifuged to pellet insoluble contents. The supernatants were then added on top of cultured melanocytes. Control was the identical DC-containing media not exposed to the fat chunks. Also, fat alone (no media) was added as a control.

[3] = test system: A375M; test: Killing by DC after pre-incubation with human lipoma fat, A375M; format: cell-based
Procedure: as §4

[4] = test system: lipomas; test: Human lipoma study with sodium deoxycholate (Example 10); format: in vivo
Procedure: Six patients having 12 lipomas were injected with sodium deoxycholate (DC) solutions over a period of six months. […] Measurements were made by physical measurements and ultrasound imaging.

[5] = test system: HaCaT human keratinocyte cells; test: MTS cell viability assay in cultured HaCaT cells; format: cell-based; details: for cell viability (MTS, OD 490): 30 min at 37° C.
Procedure: To measure cell viability after detergent treatment, HaCaT human keratinocyte cells were cultured in DMEM (Dulbecco's modified Eagle's medium) supplemented with 10% fetal calf serum, penicillin, and streptomycin. […] Cell viability was determined by an absorbance spectrophotometer (at 490 nm) after 4 hour incubation with the assay at 37° C. To determine cell viability in fresh tissue, fat specimens were incubated for 4 hours in 24 well plates with stock reagents and the MTS assay. Tissue specimens were then visualized for color change and the amount of MTS in their supernatants was measured by absorbance (at 490 nm). All studies were performed in triplicate. Absorbance at 490 nm (OD 490) is proportional to the number of living cells in the culture.

[6] = test system: primary adipocytes; test: MTS survival of adipocytes after DC with or without 1% PC; format: cell-based, human; details: 30 min; for Adipocytes surviving in DC only: MTS OD 490 nm, single wells; for Average (DC only): mean MTS OD 490 nm
Procedure: as §1, with “Adipocytes” for “Melanocytes”, “adipocyte” for “melanocyte”, “5).” for “4).”
as §2, with “1 mL” for “MeI”, “(non-humidified)” for “(non-hunified)”
as §3, with “8” for “7”, “adipocytes” for “melanocytes”, “The adipocyte cells are primary (i.e., taken freshly from” for “A375P is”, “person) adipocytes, cultured in vitro to maturity before treatment with DC.” for “melanoma cell line (P represents poorly metastatic).”

[7] = Control = 1.000, DC 0.1% media not exposed to fat
[8] = Control = 1.000, DC 0.1% media pre-incubated with human lipoma fat
[9] = DC 0.1% media not exposed to fat
[10] = single wells, DC 0.1% media not exposed to fat
[11] = single wells, supernatant of DC 0.1% media agitated 24 hours with human lipoma fat
[12] = supernatant of DC 0.1% media agitated 24 hours with human lipoma fat
[13] = Lipoma 1, pre-treatment size 1 cm, 1 treatment
[14] = Lipoma 4, pre-treatment size 4 × 3.5 cm, 4 treatments
[15] = Lipoma 5, pre-treatment size 2 × 1.8 cm, 4 treatments
[16] = Lipoma 6, pre-treatment size 2.8 cm, 1 treatment
[17] = Lipoma 7, pre-treatment size 3 × 2 cm, 2 treatments
[18] = Lipoma 8, pre-treatment size 1 cm, 2 treatments
[19] = Lipoma 10, pre-treatment size 2 cm, 2 treatments
[20] = Lipoma 12, pre-treatment size 1 cm, 1 treatment

Q: With `C[C@H](CCC(=O)[O-])[C@H]1CC[C@H]2[C@@H]3CC[C@@H]4C[C@H](O)CC[C@]4(C)[C@H]3C[C@H](O)[C@]12C.[Na+]` [DC, sodium deoxycholate] as the molecule, how does the “Melanocytes surviving in DC only” value ([1]; DC 0.001 (w/v %)) read?
A: The value was 0.158 and 0.148 and 0.16.

Q: What about the “Melanocytes surviving in DC only” value ([1]; DC 0.005 (w/v %)) of the same molecule?
A: The value was 0.128 and 0.109 and 0.103.

Q: And the “Melanocytes surviving in DC only” value ([1]; DC 0.01 (w/v %))?
A: Its value is 0.124 and 0.107 and 0.106.

Q: What about the “Melanocytes surviving in DC only” value ([1]; DC 0.05 (w/v %)) of the same molecule?
A: The value was 0.056 and 0.038 and 0.048.

Q: What about the “Melanocytes surviving in DC only” value ([1]; DC 0.1 (w/v %)) of the same molecule?
A: The value was 0.009 and 0.014 and 0.016.

Q: What about the “Average (DC only)” value ([1]; DC 0.001 (w/v %)) of the same molecule?
A: Its value is 0.1553.

Q: And the “Average (DC only)” value ([1]; DC 0.005 (w/v %))?
A: Its value is 0.1133.

Q: What about the “Average (DC only)” value ([1]; DC 0.01 (w/v %)) of the same molecule?
A: The value was 0.1123.

Q: And the “Average (DC only)” value ([1]; DC 0.05 (w/v %))?
A: The value was 0.04733.

Q: And the “Average (DC only)” value ([1]; DC 0.1 (w/v %))?
A: Its value is 0.013.

Q: And the “Average (DC only)” value ([1]; DC 0.5 (w/v %))?
A: Its value is 0.004.

Q: What about the “LD50 (concentration at which 50% of the cells are dead)” value ([1]; melanocyte cell line, w/v %) of the same molecule?
A: Its value is “around 0.04%”.

Q: What about the “Percentage, DC 0.1%” value [2, 7] of the same molecule?
A: The value was 0.113.

Q: And the “Percentage, DC 0.1% + fat” value [2, 8]?
A: Its value is 0.539.

Q: What about the “Average, DC 0.1%” value [2, 9] of the same molecule?
A: The value was 0.063.

Q: And the “Actual, DC 0.1%” value [2, 10]?
A: The value was 0.07 and 0.061 and 0.058.

Q: What about the “WM266 (readings), DC 0.1%” value [2, 10] of the same molecule?
A: The value was 0.07 and 0.061 and 0.058.

Q: And the “Actual, DC 0.1% + fat” value [2, 11]?
A: The value was 0.281 and 0.308 and 0.314.

Q: And the “WM266 (readings), DC 0.1% + fat” value [2, 11]?
A: The value was 0.281 and 0.308 and 0.314.

Q: What about the “Average, DC 0.1% + fat” value [2, 12] of the same molecule?
A: Its value is 0.301.

Q: What about the “Percentage, DC 0.1%” value [3, 7] of the same molecule?
A: The value was 0.106.

Q: What about the “Percentage, DC 0.1% + fat” value [3, 8] of the same molecule?
A: The value was 0.662.

Q: And the “Average, DC 0.1%” value [3, 9]?
A: The value was 0.064.

Q: What about the “A375M (readings), DC 0.1%” value [3, 10] of the same molecule?
A: The value was 0.066 and 0.063.

Q: And the “Actual, DC 0.1%” value [3, 10]?
A: Its value is 0.066 and 0.063.

Q: What about the “A375M (readings), DC 0.1% + fat” value [3, 11] of the same molecule?
A: The value was 0.456 and 0.382 and 0.365.

Q: And the “Actual, DC 0.1% + fat” value [3, 11]?
A: Its value is 0.456 and 0.382 and 0.365.

Q: And the “Average, DC 0.1% + fat” value [3, 12]?
A: Its value is 0.401.

Q: And the “Change in volume (%)” value [4, 13]?
A: Its value is −100%.

Q: What about the Post-treatment size [4, 13] of the same molecule?
A: The Post-treatment size was 0.

Q: And the “Change in volume (%)” value ([4]; Lipoma 3, pre-treatment size 2 × 2.5 cm, 3 treatments)?
A: Its value is 84%.

Q: What about the “Change in volume (%)” value [4, 14] of the same molecule?
A: The value was 84%.

Q: And the Post-treatment size [4, 14]?
A: Its Post-treatment size is 2.

Q: And the “Change in volume (%)” value [4, 15]?
A: Its value is 92%.

Q: And the Post-treatment size [4, 15]?
A: The Post-treatment size was 1.3.

Q: And the “Change in volume (%)” value [4, 16]?
A: The value was 99%.

Q: What about the Post-treatment size [4, 16] of the same molecule?
A: The Post-treatment size was 0.5.

Q: And the “Change in volume (%)” value [4, 17]?
A: Its value is 97%.

Q: And the Post-treatment size [4, 17]?
A: Its Post-treatment size is 0.8.

Q: And the “Change in volume (%)” value [4, 18]?
A: Its value is 100%.

Q: And the Post-treatment size [4, 18]?
A: The Post-treatment size was 0.

Q: What about the “Change in volume (%)” value ([4]; Lipoma 9, pre-treatment size 2 × 1 cm, 2 treatments) of the same molecule?
A: Its value is 67%.

Q: And the “Change in volume (%)” value [4, 19]?
A: Its value is 73%.

Q: What about the Post-treatment size [4, 19] of the same molecule?
A: Its Post-treatment size is 1.3.

Q: And the “Change in volume (%)” value ([4]; Lipoma 11, pre-treatment size 2 cm, 1 treatment)?
A: Its value is 79%.

Q: What about the “Change in volume (%)” value [4, 20] of the same molecule?
A: The value was 50%.

Q: And the Post-treatment size [4, 20]?
A: Its Post-treatment size is 0.8.

Q: And the “size of injected lipomas” value ([4]; six patients, 12 lipomas, after at least one treatment, six months)?
A: The value was “reduced in size”.

Q: What about the “cell viability (MTS, OD 490)” value ([5]; 0.005% dilution) of the same molecule?
A: Its value is “little effect”.

Q: And the “cell viability (MTS, OD 490)” value ([5]; 0.05% and 0.5% concentrations)?
A: Its value is “progressively decreased”.

Q: What about the “viability of cultured cells (MTS, FIG. 2a)” value ([5]; approximately equal to the complete PBF) of the same molecule?
A: Its value is “profoundly decreased the viability of cultured cells”.

Q: And the “Adipocytes surviving in DC only” value ([6]; DC 0.01 (w/v %))?
A: The value was 0.067 and 0.133 and 0.13.

Q: What about the “Adipocytes surviving in DC only” value ([6]; DC 0.05 (w/v %)) of the same molecule?
A: The value was 0.01 and 0.009 and 0.008.

Q: And the “Adipocytes surviving in DC only” value ([6]; DC 0.1 (w/v %))?
A: Its value is 0.

Q: And the “Adipocytes surviving in DC only” value ([6]; DC 0.5 (w/v %))?
A: Its value is 0.

Q: And the “LD50 (concentration at which 50% of the fat cells are dead)” value ([6]; adipocytes, w/v %)?
A: Its value is “around 0.02%”.

Q: What about the “Average (DC only)” value ([6]; DC 0.005 (w/v %)) of the same molecule?
A: The value was 0.111.

Q: What about the “Average (DC only)” value ([6]; DC 0.01 (w/v %)) of the same molecule?
A: Its value is 0.131.

Q: What about the “Average (DC only)” value ([6]; DC 0.05 (w/v %)) of the same molecule?
A: Its value is 0.09.

Q: And the “Average (DC only)” value ([6]; DC 0.1 (w/v %))?
A: Its value is 0.

Q: And the “Average (DC only)” value ([6]; DC 0.5 (w/v %))?
A: The value was 0.
